How the values were obtained:
Assay type in all cases: cell-based, rat
[1] = test system: neuronal cortical cells; test: Glutamate toxicity assay, neurite network (neurofilament immunostaining) of primary cortical neurons; conditions: alone or combined
Experimental: Glutamate toxicity is involved in the pathogenesis of Parkinson's disease. In this set of experiment, candidate compounds have been tested for their ability to prevent or reduce the toxic effects of glutamate toxicity on neuronal cells. The drugs are first tested individually, followed by assays of their combinatorial action.
The efficacy of drug combinations of the invention is assessed on primary cortical neuron cells.
Rat cortical neurons were cultured as described by Singer et al.. Briefly pregnant female rats of 15 days gestation were killed by cervical dislocation (Rats Wistar) and the foetuses were removed from the uterus. The cortex was removed and placed in ice-cold medium of Leibovitz (L15) containing 2% of Penicillin 10.000 U/ml and Streptomycin 10 mg/ml and 1% of bovine serum albumin (BSA). Cortices were dissociated by trypsin for 20 min at 37° C. (0.05%). The reaction was stopped by the addition of Dulbecco's modified Eagle's medium (DMEM) containing DNaseI grade II and 10% of foetal calf serum (FCS). Cells were then mechanically dissociated by 3 serial passages through a 10 ml pipette and centrifuged at 515 g for 10 min at +4° C. The supernatant was discarded and the pellet of cells was re-suspended in a defined culture medium consisting of Neurobasal supplemented with B27 (2%), L-glutamine (0.2 mM), 2% of PS solution and 10 ng/ml of BDNF. Viable cells were counted in a Neubauer cytometer using the trypan blue exclusion test. The cells were seeded at a density of 30 000 cells/well in 96 well-plates (wells were pre-coated with poly-L-lysine (10 μg/ml)) and were cultured at +37° C. in a humidified air (95%)/CO2 (5%) atmosphere.
After 12 days of neuron culture, drugs of the candidate combinations are solved in culture medium (+0.1% DMSO). Candidate combinations are then pre-incubated with neurons for 1 hour before the glutamate injury. One hour after incubation with, glutamate is added for 20 min, to a final concentration of 40 μM, in presence of candidate combinations, in order to avoid further drug dilutions. At the end of the incubation, medium is changed with medium with candidate combination but without glutamate. The culture is fixed 24 hours after glutamate injury. MK801 (dizocilpinehydrogen maleate, 77086-22-7-20 μM) is used as a positive control.
After permeabilization with saponin (Sigma), cells are blocked for 2 h with PBS containing 10% goat serum, then the cells are incubated with mouse monoclonal primary antibody against Neurofilament antibody (NF, Sigma).
Nuclei of cells are labeled by a fluorescent marker (Hoechst solution, SIGMA), and neurite network quantified. Six wells per condition are used to assess neuronal survival in 3 different cultures.

[2] = test system: dopaminergic neuronal cells; test: 6-OHDA injury on mesencephalic dopaminergic neurons, number of TH positive neurons
Experimental: 6-hydroxydopamine (6-OHDA) is a neurotoxic drug which selectively initiates neuronal degeneration of dopaminergic neurons by generating reactive oxygen species and mitochondrial respiratory dysfunction which are thought to mirror events occurring in Parkinsonian brain. 6-OHDA toxicity is commonly used in vitro and in vivo to study Parkinsonism.
Rat dopaminergic neurons were cultured as described by Schinelli et al.. Pregnant female rats of 15 days gestation were killed by cervical dislocation (Rats Wistar; Janvier) and the foetuses removed from the uterus. The embryonic midbrains were removed and placed in ice-cold medium of Leibovitz (L15; PanBiotech) containing 2% of Penicillin-Streptomycin (PS; PanBiotech) and 1% of bovine serum albumin (BSA; PanBiotech). Only the ventral portions of the mesencephalic flexure were used for the cell preparations as this is the region of the developing brain rich in dopaminergic neurons. The midbrains were dissociated by trypsinisation for 20 min at 37° C. (Trypsin EDTA 1×; PanBiotech). The reaction is stopped by the addition of Dulbecco's modified Eagle's medium (DMEM; PanBiotech) containing DNAase I grade II (0.1 mg/ml; PanBiotech) and 10% of foetal calf serum (FCS; Invitrogen). Cells were then mechanically dissociated by 3 passages through a 10 ml pipette and centrifuged at 180×g for 10 min at +4° C. on a layer of BSA (3.5%) in L15 medium. The supernatant was discarded and the cells of pellet were re-suspended in a defined culture medium consisting of Neurobasal (Invitrogen) supplemented with B27 (2%; Invitrogen), L-glutamine (2 mM; PanBiotech) and 2% of PS solution and 10 ng/ml of Brain-derived neurotrophic factor (BDNF, PanBiotech) and 1 ng/ml of Glial-Derived Neurotrophic Factor (GDNF, PanBiotech). Viable cells were counted in a Neubauer cytometer using the trypan blue exclusion test. The cells were seeded at a density of 40 000 cells/well in 96 well-plates (pre-coated with poly-L-lysine (Greiner)) and are cultured at 37° C. in a humidified air (95%)/CO2 (5%) atmosphere. Half of the medium was changed every 2 days with fresh medium. Five to six percent of the neuronal cell population were dopaminergic neurons.
On day 6 of culture, the medium was removed and fresh medium was added, without or with 6-OHDA at the following concentrations: 20 μM during 48 hours diluted in control medium. Test compounds were pre-incubated for 1 h before the 6-OHDA application during 48 hours.
After 48 hours of intoxication with 6-OHDA, cells were fixed by a solution of 4% paraformaldehyde (Sigma) in PBS, pH=7.3 for 20 min at room temperature. The cells were washed again twice in PBS, and then permeabilized and non-specific sites were blocked with a solution of PBS containing 0.1% of saponin (Sigma) and 1% FCS for 15 min at room temperature. Then, cells were incubated with Monoclonal Anti-Tyrosine Hydroxylase antibody produced in mouse (TH, Sigma) at dilution of 1/1000 in PBS containing 1% FCS, 0.1% saponin, for 2 hours at room temperature.
For each condition, 2×10 pictures (representing ˜80% of total well area) per well were taken using InCell Analyzer™ 1000 (GE Healthcare) with 10× magnification. All images were taken in the same conditions. […]
Data are expressed in percentage of control conditions (no intoxication, no 6-OHDA=100%) in order to express the 6-OHDA injury. All values are expressed as mean+/−SEM (s.e. mean) of the 3 cultures (n=6 wells per condition per culture). […]

[3] = test system: cortical neuronal cells; test: Oxygen and glucose deprivation assay (in vitro model of ischemia), neurite network by MAP2; conditions: alone or combined
Experimental: B—Protective Effect Against Ischemia/Hypoxia Induced Neuronal Cell Death Rat Neuronal Cortical Cells Preparation
Cells are prepared as previously.
The neuroprotective effect of compounds is assessed by quantification of the neurite network using MAP2 antibody. Riluzole, a neuroprotective drug, (Riluteck®, 5 μM) is used as positive control.
After 10 days of neuron culture, candidate drugs are solved in culture medium (+0.1% DMSO) and then pre-incubated with neurons for 1 hour before the oxygen and glucose deprivation. One hour after candidate drug incubation, the medium is removed and fresh medium without glucose is added. This medium is composed by DMEM without glucose (Invitrogen) supplemented with 2% B27, 0.2 mM L-glutamine, 1% PS solution, 10 ng/ml of BDNF. The cells are transferred into an anaerobic incubator with 95% N2 and 5% CO2 at 37° C.
After 2 hours, 25 mM of D-Glucose will be added in culture medium and cells are transferred in classic incubator with 95% air/5% CO2 at 37° C. After 24 hours of oxygen glucose reperfusion, cells are fixed by a cold solution of alcohol/acetic acid during 5 minutes.
After permeabilization with saponin (Sigma), cells are blocked for 2 hours with PBS containing 10% goat serum, then the cells are incubated with mouse monoclonal primary antibody against MAP2 (MAP2, Sigma).
Nuclei of cells are labelled by a fluorescent marker (Hoechst solution, SIGMA). Six wells per condition are used to assess neuronal survival in 3 different cultures.
For each condition 2×10 pictures per well are taken and analyzed using InCell Analyzer TM 1000 (GE Healthcare) with 20× magnification.

[4] = FIG. 3: baclofen 400 nM, acamprosate 1.6 nM
[5] = FIG. 12A: baclofen 32 nM alone, acamprosate 10 pM alone
[6] = FIG. 12B: baclofen 32 nM alone, acamprosate 4 pM alone
[7] = FIG. 4: baclofen 80 nM, acamprosate 0.32 nM
[8] = FIG. 1: cinacalcet 64 pM, mexiletine 25.6 pM
[9] = FIG. 6: cinacalcet 64 pM, mexiletine 25.6 pM
[10] = FIG. 2: sulfisoxazole 6.8 nM, torasemide 400 nM
[11] = FIG. 5: sulfisoxazole 1.36 nM, torasemide 80 nM

With NCC(CC(=O)O)c1ccc(Cl)cc1 (centres unmarked) [baclofen] the “prevention of glutamate intoxication” value [1, 4] was “no significant effect”, the “protection from 6-OHDA injury, single drugs” value (shortened to “protection from 6-OHDA injury”) [2, 5] was “low effect” and the “protection from 6-OHDA injury” value [2, 6] was “low effect”. For the same molecule, the “protection against ischemic injury” value [3, 7] was “no significant protection”.

In the case of Cc1cccc(C)c1OCC(C)N (centres unmarked) [mexiletine], the “prevention of glutamate intoxication” value [1, 8] is reported as “no significant effect” and the “protection against ischemic injury” value [3, 9] is reported as “No significant protection”.

Cc1noc(NS(=O)(=O)c2ccc(N)cc2)c1C [sulfisoxazole] was tested, and the “prevention of glutamate intoxication” value [1, 10] was “no significant effect” and the “protection against ischemic injury” value [3, 11] was “no significant protection”.

For CC(=O)NCCCS(=O)(=O)O [acamprosate], the “prevention of glutamate intoxication” value [1, 4] was “no significant effect”, the “protection from 6-OHDA injury” value [2, 5] was “low effect” and the “protection from 6-OHDA injury” value [2, 6] was “low effect”. For the same molecule, the “protection against ischemic injury” value [3, 7] was “no significant protection”.

With Cc1cccc(Nc2ccncc2S(=O)(=O)NC(=O)NC(C)C)c1 [torasemide] the “prevention of glutamate intoxication” value [1, 10] was “no significant effect” and the “protection against ischemic injury” value [3, 11] was “no significant protection”.

With C[C@@H](NCCCc1cccc(C(F)(F)F)c1)c1cccc2ccccc12 [cinacalcet] the “prevention of glutamate intoxication” value [1, 8] was “no significant effect” and the “protection against ischemic injury” value [3, 9] was “No significant protection”.

B1: BDNF: Brain-derived neurotrophic factor, used as a positive control (protein, UniProt P23560 129-247, looked up)
Neurotrophic factor BDNF: HSDPARRGELSVCDSISEWVTAADKKTAVDMSGGTVTVLEKVPVSKGQLKQYFYETKCNPMGYTKEGCRGIDKRHWNSQCRTTQSYVRALTMDSKKRIGWRFIRIDTSCVCTLTIKRGR
modifications: Neurotrophic factor BDNF
notes: Brain-derived neurotrophic factor, used as a positive control
In the case of B1, the “protection of dopaminergic neurons from 6-OHDA injury” value ([2]; 1.85 nM, one hour pre-treatment, positive control) is reported as “significantly protected”.
